The results in this text go back to ChEMBL document CHEMBL1143244, “Conformational studies of 3-amino-1-alkyl-cyclopentane carboxamide CCR2 antagonists leading to new spirocyclic antagonists” (Bioorg Med Chem Lett, 2008).

Assay [1] concerns the target T1, C-C chemokine receptor type 2 (Homo sapiens, UniProt P41597). The experiment in a line: Displacement of [125I]MCP1 from human CCR2 expressed in human monocytes at 1 uM. In kind it is cell-based. On the technique in general: In a radioligand displacement assay an active substance lowers the binding of a labelled ligand.
Target sequence in this assay (P41597 whole entry, looked up): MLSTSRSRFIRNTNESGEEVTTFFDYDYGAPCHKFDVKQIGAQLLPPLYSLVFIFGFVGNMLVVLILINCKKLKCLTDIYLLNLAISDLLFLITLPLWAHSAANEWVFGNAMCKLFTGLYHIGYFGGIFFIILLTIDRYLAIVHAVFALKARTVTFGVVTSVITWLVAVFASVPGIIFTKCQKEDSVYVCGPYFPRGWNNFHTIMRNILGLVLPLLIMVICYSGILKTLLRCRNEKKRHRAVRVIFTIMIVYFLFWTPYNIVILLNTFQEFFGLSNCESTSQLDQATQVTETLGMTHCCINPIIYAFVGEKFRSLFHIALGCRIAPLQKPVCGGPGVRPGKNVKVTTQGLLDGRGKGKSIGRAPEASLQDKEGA
The target of assay [2] is T1, C-C chemokine receptor type 2. The experiment in a line: Displacement of [125I]MCP1 from human CCR2 expressed in human monocytes. The class given is cell-based.
Target sequence in this assay (P41597 whole entry): as the sequence (P41597 whole entry, looked up) above

For orientation: inhibition means the drop in the measured response relative to a control, in per cent. Low readings indicate little suppression, high ones strong suppression. `C[C@H]1CN([C@@H]2CCC3(CCN(Cc4cc(F)cc(C(F)(F)F)c4)C3=O)C2)CC[C@@]12C=Cc1ccccc12` (some centres undefined) displayed an inhibition in assay [1] of 18%.
The term IC50 denotes the concentration at which inhibition is half-maximal. Read a low IC50 as greater potency in that assay. Turning to `C[C@H]1CN([C@@H]2CC[C@@]3(CCO[C@H]3OCc3cc(F)cc(C(F)(F)F)c3)C2)CC[C@@]12C=Cc1ccccc12`, the IC50 in assay [2] stood at 4.6 nM.
Same read-out and setting: next, `CC(C)[C@]1(C(=O)NCc2cc(F)cc(C(F)(F)F)c2)CC[C@@H](N2CC[C@@]3(C=Cc4ccccc43)[C@@H](C)C2)C1`: 1.4 nM; `C[C@H]1CN([C@@H]2CC[C@@]3(CCO[C@@H]3OCc3cc(F)cc(C(F)(F)F)c3)C2)CC[C@@]12C=Cc1ccccc12`: 115 nM.
